# Measurements reported in patent US4775676A, “Thiazolidine derivatives, process for their preparation and pharmaceutical compositions” (Chiesi Farmaceutici S.p.A., priority 1985, dated 1988).
# Counter-ions that a name gives are not always drawn.
# Tests used:
# mice = assay: Toxicity after single administration; format: in vivo; settings: p.o., death-rate after 7 days
# Experimental: (§1) Toxicity after single administration
# (§2) IVA:NMRI (SPF) mice, fasted for 18 hours before treatment with water ad libitum, were used. The compounds, dissolved or suspended in a 0.2% Tween® 80 aqueous solution, were administered orally, at constant concentration (10%). According to the death-rate observed after 7 days from treatment, the approximate LD50 values, reported in Table 1, were interpolated on Probi ts chart.
# respiratory tract = assay: Mucosecretodynamic activity, "in vivo" fluorescein test; design: species or system male IVA-NMRI (SPF) mice; settings: mice, p.o., 90 minutes before i.v. fluorescein, increase of fluorescein excretion; for ED50: Mus musculus, po
# Experimental: Mucosecretodynamic activity
# Male IVA-NMRI (SPF) mice, housed for at least 1 week under standard conditions, fasted (water ad libitum) for 18 hours before treatment, were used.
# The compounds, dissolved or suspended in 20 ml/kg of a 0.2% Tween® 80 aqueous suspension, were administred orally 90 minutes before the intravenous injection of 1% (5 ml/kg) fluorescein. Animals treated p.o. with the only vehicle were used as a control group. After 30 minutes from the fluorescein injection the animals were killed and subjected to incannulation of the trachea. Then the respiratory tract was washed and the spectrophotometric dosage of the fluorescein was carried out against phosphate buffer on the so collected eluate, suitably diluted with phosphate buffer and centrifugated.
# The amount of fluorescein was determined by means of a calibration curve prepared under the same experimental conditions and the excretion was expressed as ng/hour/10 g body weight. For each experimental session the percent increases of excretion versus controls were calculated.
# porcine gastric mucine = assay: "In vitro" mucolytic activity (viscoelasticity of porcine gastric mucine); format: biochemical; settings: 6% porcine gastric mucine, 25° C., 30 minutes, 0.075 Hz, versus control
# Experimental: "In vitro" mucolytic activity
# Control samples were similarly added with the vehicle only. After incubation at 25° C. for 30 minutes, the analysis of the rheologic characteristics was carried out by means of Contraves Low-Shear 30 sinus viscosimeter provided with an oscillating device for the study of the viscoelasticity. The dynamic measurements of the viscoelasticity were carried out at a single frequency (0.075 Hz), using an appropriate concentrical cylinder measurement system, particularly suited for bronchial mucus (Contraves MS-LS 1-1).
# The rheogramm was recorded on X/Y Rikadenki 11T recorder and the […] determination was carried out by means of vectorial calculation.
# The percent decreases versus control samples, reported in Table 1, were determined from the means of the values of said parameters (at least 7 replications per sample).
# [1] = Toxicity after single administration; format: in vivo; settings: mouse, in vivo, po, mice, p.o., death-rate after 7 days, read-out: Acute toxicity LD50 approx.
# Experimental: as §1, §2
Compound,"""in vitro"" % decrease elasticity (G') (porcine gastric mucine)","""in vitro"" % decrease viscosity (.eta.) (porcine gastric mucine)",LD50 at 168 h [1],ED50 (respiratory tract),other results
4-methyl-2-[(3-thiazolidyl)carbonyl]-cyclohexane-carboxylic acid lysine salt [Compound 11],6%,9%,,,"Acute toxicity LD50 approx. (mice): > 4000 mg/kg; ""in vivo"" fluorescein test ED50 (respiratory tract): 300 mg/kg"
"CCC1SCCN1C(=O)C1C2C=CC(C2)C1C(=O)O (centres unmarked) [Compound 2, 3-[3-[(2-Ethyl)-thiazolidine]carbonyl]-bicyclo-[2,2,1]-hepta-5-ene-2-carboxylic acid]",33%,58%,~3000 mg/kg,,
"O=C(O)C1C2C=CC(C2)C1C(=O)N1CCSC1 (centres unmarked) [Compound 3, 3-[(3-thiazolidyl)-carbonyl]-bicyclo-[2,2,1]-hepta-5-ene-2-carboxylic acid]",,,~1500 mg/kg,170 mg/kg,
"O=C(O)CCC(=O)N1CCSC1 [Compound 4, 4-oxo-4-(3-thiazolidyl)-butanoic acid]",,,~4000 mg/kg,,
"O=C(CCC(=O)N1CCSC1)N1CCSC1 [Compound 7, 1,4-Bis-(3-thiazolidyl)-1,4-dioxo-butane]",,,~3000 mg/kg,~750 mg/kg,
"N[C@@H](CSCC(=O)N1CCSC1)C(=O)O [Compound 8, 2-Amino-3-[[(3-thiazolidyl)-carbonylmethyl]thio]propionic acid]",,,> 4000 mg/kg,,
"CC(SCC(=O)N1CCSC1)C(=O)NCC(=O)O (centres unmarked) [Compound 9, 2-[2-[(3-thiazolidyl)carbonylmethylthio]-propionamide]acetic acid]",21%,40%,> 4000 mg/kg,,
"O=C(O)CCC(=O)N1CCSC1 [Compound 10, 4-oxo-4-(3-thiazolidyl)butanoic acid sodium salt]",,,,,"Acute toxicity LD50 approx. (mice; sodium salt, 10080 min): > 4000 mg/kg"
"CC1(C(=O)N2CCSC2)CCC(C(=O)O)C1(C)C (centres unmarked) [Compound 12, -3-[(3-thiazolidyl)-carbonyl]-2,2,3-trimethyl-cyclopentanecarboxylic acid lysine salt]",13%,0%,> 4000 mg/kg,310 mg/kg,
"CC(=O)N[C@@H](CS)C(=O)O [N-acetyl-L-cysteine, N--acetyl-L-cysteine, reference compound]",39%,53%,,,
